Measurements: patent US9770023B2, “Active compound combinations comprising phenylamidine compounds and further fungicides” (BAYER CROPSCIENCE AKTIENGESELLSCHAFT, priority 2014, dated 2017)

Assays:
Alternaria solani = test: in vivo preventive test on Alternaria test (tomatoes)
Protocol: [table] To produce a suitable preparation of active compound, 1 part by weight of active compound is mixed with the stated amounts of solvent and emulsifier, and the concentrate is diluted with water to the desired concentration. To test for preventive activity, young plants are sprayed with the preparation of active compound at the stated rate of application. After the spray coating has dried on, the plants are inoculated with an aqueous spore suspension of Alternaria solani. The plants are then placed in an incubation cabinet at approximately 20° C. and a relative atmospheric humidity of 100%. The test is evaluated 3 days after the inoculation. 0% means an efficacy which corresponds to that of the untreated control while an efficacy of 100% means that no disease is observed.

Septoria tritici = test: in vivo preventive Septoria tritici test (wheat)
Protocol: (§1) [table] To produce a suitable preparation of active compound, 1 part by weight of active compound or active compound combination is mixed with the stated amounts of solvent and emulsifier, and the concentrate is diluted with water to the desired concentration. To test for preventive activity, young plants are sprayed with the preparation of active compound or active compound combination at the stated rate of application. After the spray coating has been dried, the plants are sprayed with a spore suspension of Septoria tritici. The plants remain for 48 hours in an incubation cabinet at approximately 20° C. and a relative atmospheric humidity of approximately 100% and afterwards for 60 hours at approximately 15° C. in a translucent incubation cabinet at a relative atmospheric humidity of approximately 100%. The plants are placed in the greenhouse at a temperature of approximately 15° C. and a relative atmospheric humidity of approximately 80%. The test is evaluated 21 days after the inoculation. 0% means an efficacy which corresponds to that of the untreated control, while an efficacy of 100% means that no disease is observed.

Phakopsora pachyrhizi = test: in vivo preventive test on Phakopsora test (soybeans)
Protocol: To produce a suitable preparation of active compound, 1 part by weight of active compound is mixed with the stated amounts of solvent and emulsifier, and the concentrate is diluted with water to the desired concentration. To test for preventive activity, young plants are sprayed with the preparation of active compound at the stated rate of application. After the spray coating has dried on, the plants are inoculated with an aqueous spore suspension of the causal agent of soybean rust (Phakopsora pachyrhizi) and stay for 24 h without light in an incubation cabinet at approximately 24° C. and a relative atmospheric humidity of 95%. The plants remain in the incubation cabinet at approximately 24° C. and a relative atmospheric humidity of approximately 80% and a day/night interval of 12 h.
The test is evaluated 7 days after the inoculation. 0% means an efficacy which corresponds to that of the untreated control, while an efficacy of 100% means that no disease is observed.

Puccinia triticina = test: in vivo preventive Puccinia triticina test (wheat); conditions: Table E1, 8 days after inoculation
Protocol: To produce a suitable preparation of active compound, 1 part by weight of active compound or active compound combination is mixed with the stated amounts of solvent and emulsifier, and the concentrate is diluted with water to the desired concentration.
To test for preventive activity, young plants are sprayed with the preparation of active compound or active compound combination at the stated rate of application. After the spray coating has been dried, the plants are sprayed with a spore suspension of Puccinia triticina. The plants remain for 48 hours in an incubation cabinet at approximately 20° C. and a relative atmospheric humidity of approximately 100%. The plants are placed in the greenhouse at a temperature of approximately 20° C. and a relative atmospheric humidity of approximately 80%.
The test is evaluated 8 days after the inoculation. 0% means an efficacy which corresponds to that of the untreated control, while an efficacy of 100% means that no disease is observed.

[1] = system: Blumeria graminis f.sp. hordei; test: in vivo preventive Blumeria test (barley)
Protocol: [table] To produce a suitable preparation of active compound, 1 part by weight of active compound or active compound combination is mixed with the stated amounts of solvent and emulsifier, and the concentrate is diluted with water to the desired concentration. To test for preventive activity, young plants are sprayed with the preparation of active compound or active compound combination at the stated rate of application. After the spray coating has been dried, the plants are dusted with spores of Blumeria graminis f.sp. hordei. The plants are placed in the greenhouse at a temperature of approximately 18° C. and a relative atmospheric humidity of approximately 80% to promote the development of mildew pustules. The test is evaluated 7 days after the inoculation. 0% means an efficacy which corresponds to that of the untreated control, while an efficacy of 100% means that no disease is observed.

Pyrenophora teres = test: in vivo preventive Pyrenophora teres test (barley); conditions: Table F1, 8 days after inoculation
Protocol: as §1, with “Pyrenophora teres.” for “Septoria tritici.”, “approximately” for “approximately 100% and afterwards for 60 hours at approximately 15° C. in a translucent incubation cabinet at a relative atmospheric humidity of approximately”, “20°” for “15°”, “8” for “21”

Leptosphaeria nodorum = test: in vivo preventive Leptosphaeria nodorum test (wheat); conditions: Table C1, 8 days after inoculation
Protocol: as §1, with “Leptosphaeria nodorum.” for “Septoria tritici.”, “approximately” for “approximately 100% and afterwards for 60 hours at approximately 15° C. in a translucent incubation cabinet at a relative atmospheric humidity of approximately”, “25°” for “15°”, “8” for “21”

[2] = Table G2, 21 days after inoculation, 40 ppm a.i.
[3] = Table D2, 7 days after inoculation, 0.5 ppm a.i.
[4] = Table D2, 7 days after inoculation, 1 ppm a.i.
[5] = Table A2, 3 days after inoculation, 2 ppm a.i.
[6] = Table A2, 3 days after inoculation, 4 ppm a.i.
[7] = Table G1, 21 days after inoculation, 20 ppm a.i.
[8] = Table D3, 7 days after inoculation, 2 ppm a.i.
[9] = Table B2, 7 days after inoculation, 10 ppm a.i.
[10] = Table B2, 7 days after inoculation, 40 ppm a.i.
[11] = Table A1, 3 days after inoculation, 1 ppm a.i.
[12] = Table D3, 7 days after inoculation, 10 ppm a.i.

Cn1cc(C(=O)Nc2cccc3c2[C@@H]2CC[C@H]3C2=C(Cl)Cl)c(C(F)F)n1 (racemic) [(B.6), benzovindiflupyr]
Efficacy in % found (Alternaria solani; Table A2, 3 days after inoculation, 0.5 ppm a.i.): 22% | Efficacy in % found (Septoria tritici; [2]): 38% | Efficacy in % found (Phakopsora pachyrhizi; Table D2, 7 days after inoculation, 0.25 ppm a.i.): 8% | Efficacy in % found (Phakopsora pachyrhizi; [3]): 8% | Efficacy in % found (Phakopsora pachyrhizi; [4]): 15% | Efficacy in % found (Puccinia triticina; 40 ppm a.i.): 86% | Efficacy in % found ([1]; Table B1, 7 days after inoculation, 40 ppm a.i.): 11% | Efficacy in % found (Pyrenophora teres; 80 ppm a.i.): 57%

OC(Cc1ccccc1Cl)(Cn1nc[nH]c1=S)C1(Cl)CC1 (centres unmarked) [(A.3), prothioconazole]
Efficacy in % found (Alternaria solani; [5]): 0% | Efficacy in % found (Alternaria solani; [6]): 24% | Efficacy in % found (Septoria tritici; [7]): 0% | Efficacy in % found (Phakopsora pachyrhizi; Table D3, 7 days after inoculation, 1 ppm a.i.): 0% | Efficacy in % found (Phakopsora pachyrhizi; [8]): 35% | Efficacy in % found [1, 9]: 22% | Efficacy in % found [1, 10]: 22%

CC(C)(C)C(O)(CCc1ccc(Cl)cc1)Cn1cncn1 (centres unmarked) [(A.4), tebuconazole]
Efficacy in % found (Alternaria solani; [11]): 0% | Efficacy in % found (Phakopsora pachyrhizi; Table D1, 7 days after inoculation, 0.1 ppm a.i.): 0% | Efficacy in % found (Phakopsora pachyrhizi; Table D1, 7 days after inoculation, 0.2 ppm a.i.): 30%

Cn1cc(C(=O)Nc2ccc(F)cc2-c2ccc(Cl)c(Cl)c2)c(C(F)F)n1 [(B.1), bixafen]
Efficacy in % found (Alternaria solani; [11]): 40% | Efficacy in % found (Leptosphaeria nodorum; 80 ppm a.i.): 0% | Efficacy in % found (Septoria tritici; [2]): 0% | Efficacy in % found (Phakopsora pachyrhizi; Table D1, 7 days after inoculation, 10 ppm a.i.): 0% | Efficacy in % found (Phakopsora pachyrhizi; [12]): 0% | Efficacy in % found [1, 10]: 0%

O=C(NCCc1ncc(C(F)(F)F)cc1Cl)c1ccccc1C(F)(F)F [(B.2), fluopyram]
Efficacy in % found (Alternaria solani; [5]): 30% | Efficacy in % found [1, 10]: 11%

Cn1cc(C(=O)Nc2ccccc2-c2cc(F)c(F)c(F)c2)c(C(F)F)n1 [(B.3), fluxapyroxad]
Efficacy in % found (Leptosphaeria nodorum; 40 ppm a.i.): 14% | Efficacy in % found (Septoria tritici; [2]): 13%

CC(C)c1ccc(Cl)cc1CN(C(=O)c1c(C(F)F)nn(C)c1F)C1CC1 [(B.8), N-(5-chloro-2-isopropylbenzyl)-N-cyclopropyl-3-(difluoromethyl)-5-fluoro-1-methyl-1H-pyrazole-4-carboxamide]
Efficacy in % found (Alternaria solani; [11]): 45% | Efficacy in % found (Leptosphaeria nodorum; 20 ppm a.i.): 0% | Efficacy in % found (Septoria tritici; [7]): 29% | Efficacy in % found (Phakopsora pachyrhizi; Table D1, 7 days after inoculation, 20 ppm a.i.): 0% | Efficacy in % found (Phakopsora pachyrhizi; [12]): 0%

CO/C=C(/C(=O)OC)c1ccccc1Oc1cc(Oc2ccccc2C#N)ncn1 [(C.1), azoxystrobin]
Efficacy in % found (Alternaria solani; Table A2, 3 days after inoculation, 1 ppm a.i.): 46% | Efficacy in % found (Septoria tritici; Table G2, 21 days after inoculation, 10 ppm a.i.): 0% | Efficacy in % found (Phakopsora pachyrhizi; [3]): 20% | Efficacy in % found (Phakopsora pachyrhizi; [4]): 68% | Efficacy in % found (Phakopsora pachyrhizi; Table D3, 7 days after inoculation, 0.5 ppm a.i.): 23% | Efficacy in % found (Puccinia triticina; 10 ppm a.i.): 71% | Efficacy in % found (Pyrenophora teres; 20 ppm a.i.): 71%

CO/C=C(/C(=O)OC)c1ccccc1COc1cccc(C(F)(F)F)n1 [(C.2), picoxystrobin]
Efficacy in % found (Phakopsora pachyrhizi; Table D2, 7 days after inoculation, 2 ppm a.i.): 30% | Efficacy in % found ([1]; Table B1, 7 days after inoculation, 20 ppm a.i.): 44%

COC(=O)N(OC)c1ccccc1COc1ccn(-c2ccc(Cl)cc2)n1 [(C.3), pyraclostrobin]
Efficacy in % found (Leptosphaeria nodorum; 40 ppm a.i.): 57% | Efficacy in % found (Septoria tritici; [2]): 88%

CON=C(C(=O)OC)c1ccccc1CON=C(C)c1cccc(C(F)(F)F)c1 [(C.4), trifloxystrobin]
Efficacy in % found (Alternaria solani; [11]): 30% | Efficacy in % found (Alternaria solani; [6]): 73% | Efficacy in % found (Leptosphaeria nodorum; 40 ppm a.i.): 14% | Efficacy in % found (Septoria tritici; Table G2, 21 days after inoculation, 20 ppm a.i.): 75% | Efficacy in % found (Phakopsora pachyrhizi; [8]): 0% | Efficacy in % found [1, 9]: 11%
